Results from US8791079B2, “Methods for treating heart failure by inhibiting the mitochondrial sodium-calcium exchanger (mNCE)” (priority 2009, dated 2014).

How the values were obtained:
aortic-banded animals [1] = experiment: Delayed sudden cardiac death model (aortic banding plus daily low dose isoproterenol), survival and echocardiography; format: in vivo, guinea pig
From the text: (§1) As provided herein, the presently disclosed subject matter investigated whether these mechanisms underlie sudden cardiac death (SCD) and contractile decompensation in hypertrophic heart failure in two novel guinea-pig models of combined ascending aortic constriction together with β-adrenergic stimulation and whether therapy via mNCE inhibition was effective. Accordingly, in some embodiments, the presently disclosed subject matter provides a therapeutic strategy for treating heart failure.
(§2) Two models were developed: acute SCD and delayed SCD. The acute SCD model used a high dose of isoproterenol (5 mg/kg) administered by a single intraperitoneal injection two days after ascending aortic banding; and the delayed SCD model used low dose isoproterenol (week one: 1 mg/kg; subsequent weeks: 2 mg/kg), administered by daily intraperitoneal injection over the course of five weeks after aortic banding. Additionally, a therapeutic regime comprised of chronic treatment with an inhibitor of mNCE, e.g., CGP-37157, mean dose approximately 40 μg/kg, administered by implantation of an osmotic pump in the abdominal cavity (delivery rate: 0.015 mg/kg/hr) for extended delivery of the compound was initiated.
The delayed SCD protocol was used to investigate the effect of chronic CGP-37157 treatment on mortality and the development of heart failure. Survival was extended using this protocol as compared with the acute SCD model. In the absence of CGP-37157, however, the death rate of the animals approached 60% by 30 days post-banding (see FIG. 10). In contrast, more than 78% of the animals survived in the group with CGP-37157 treatment (see FIG. 10).
Further, echocardiographic studies were carried out before surgery and at four weeks after aortic banding (see FIG. 11). […] In the group with CGP-37157 treatment, however, cardiac function was maintained.

[2] = molecular target: T1, mitochondrial Na+/Ca2+ exchanger (mNCE) (Cavia porcellus, UniProt H0V3X3); details: cited from earlier work
T1 construct: in normal cardiac myocytes, with [Na^+]i elevated artificially using the patch clamp technique, and in myocytes isolated from failing hearts; host or cells: isolated cardiac myocytes (endogenous protein)
T1 sequence (H0V3X3 27-580): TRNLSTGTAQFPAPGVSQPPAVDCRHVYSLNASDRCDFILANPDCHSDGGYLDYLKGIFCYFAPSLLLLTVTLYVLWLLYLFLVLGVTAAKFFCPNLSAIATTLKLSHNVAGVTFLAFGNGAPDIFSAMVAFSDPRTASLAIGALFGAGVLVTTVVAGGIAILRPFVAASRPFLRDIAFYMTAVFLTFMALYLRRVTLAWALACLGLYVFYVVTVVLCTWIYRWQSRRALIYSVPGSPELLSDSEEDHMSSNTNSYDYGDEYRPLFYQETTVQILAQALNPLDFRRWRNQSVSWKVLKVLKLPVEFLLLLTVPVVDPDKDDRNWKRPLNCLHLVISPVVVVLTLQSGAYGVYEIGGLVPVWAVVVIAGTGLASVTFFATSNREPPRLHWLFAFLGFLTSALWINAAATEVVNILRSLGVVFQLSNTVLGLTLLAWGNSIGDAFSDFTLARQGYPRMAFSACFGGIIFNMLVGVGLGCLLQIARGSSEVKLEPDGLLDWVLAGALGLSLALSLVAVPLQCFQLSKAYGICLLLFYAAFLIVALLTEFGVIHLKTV

aortic-banded animals [3] = experiment: Acute sudden cardiac death model (ascending aortic banding plus isoproterenol 5 mg/kg); format: in vivo, guinea pig; details: single dose 5 mg/kg isoproterenol i.p. two days after aortic banding; CGP-37157 by osmotic pump; 77% without CGP-37157
From the text: as §1, §2

In the case of O=C1CSC(c2ccccc2Cl)c2cc(Cl)ccc2N1 (stereo not shown) [CGP-37157, 7-chloro-5-(2-chlorophenyl)-1,5-dihydro-4,1-benzothiazepin-2(3H)-one], the animals survived (aortic-banded animals [1]; 30 days post-banding, daily isoproterenol, CGP-37157 by osmotic pump, death rate approached 60% without CGP-37157) is reported as “more than 78%”, the “Fractional Shortening (FS) at baseline” value (aortic-banded animals [1]; CGP-37157-treated group, before surgery, n=6) is reported as 54.0%±1.0 and the “Fractional Shortening (FS) at four weeks after aortic banding” value (aortic-banded animals [1]; CGP-37157-treated group, n=6, without CGP-37157 FS decreased from 54.9 to 42.5) is reported as 59.2%±1.8. For the same compound, the “left ventricular wall thickness” value (aortic-banded animals [1]; echocardiography four weeks after aortic banding versus before surgery) was “increased similarly in both groups”, the “mitochondrial NADH production” value ([2]; cells with elevated [Na+]i) was “restores mitochondrial NADH production” and the “mitochondrial Ca2+ retention capacity” value ([2]; inhibition of [Ca2+]m efflux) was “increases mitochondrial Ca^2+ retention capacity”. It also gave a death rate (aortic-banded animals [3]) of 20%.
